Assay results published in patent US8940756B2, “Dihydronaphthyridines and related compounds useful as kinase inhibitors for the treatment of proliferative diseases” (Deciphera Pharmaceuticals, Inc., priority 2012, dated 2015).

Tests used:
[1] = target: T1, c-KIT kinase (Seq ID no. 1) (Homo sapiens, UniProt P10721); assay: c-KIT Kinase Assay (pyruvate kinase/lactate dehydrogenase coupled); format: biochemical; details: enzymatic assay, ATP 200 μM; read-out: KIT (wt)
T1 construct: GST (N); TEV cleavage site (N); purchased deCODE Biostructures
T1 sequence (P10721 with tags, fused parts or gaps): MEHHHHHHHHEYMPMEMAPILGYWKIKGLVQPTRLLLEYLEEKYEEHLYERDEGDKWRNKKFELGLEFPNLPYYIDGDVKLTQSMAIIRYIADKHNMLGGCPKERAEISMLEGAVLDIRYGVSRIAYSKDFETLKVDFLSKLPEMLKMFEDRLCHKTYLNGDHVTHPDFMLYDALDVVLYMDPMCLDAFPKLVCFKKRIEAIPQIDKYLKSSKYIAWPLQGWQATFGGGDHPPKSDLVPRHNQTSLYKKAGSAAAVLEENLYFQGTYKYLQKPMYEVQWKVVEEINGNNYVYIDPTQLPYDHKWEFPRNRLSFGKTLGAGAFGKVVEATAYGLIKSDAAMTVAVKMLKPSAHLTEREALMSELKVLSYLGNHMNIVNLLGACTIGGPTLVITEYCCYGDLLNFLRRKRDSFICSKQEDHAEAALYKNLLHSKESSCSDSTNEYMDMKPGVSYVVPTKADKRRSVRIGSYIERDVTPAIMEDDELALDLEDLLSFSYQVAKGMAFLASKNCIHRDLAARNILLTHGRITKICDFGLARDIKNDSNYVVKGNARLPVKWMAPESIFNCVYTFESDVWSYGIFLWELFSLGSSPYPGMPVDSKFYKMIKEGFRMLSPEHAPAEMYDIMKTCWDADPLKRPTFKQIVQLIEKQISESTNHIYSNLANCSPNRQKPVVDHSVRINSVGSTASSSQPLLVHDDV

[2] = target: T2, c-KIT V654A kinase (Seq ID no. 2) (Homo sapiens, UniProt P10721, V654A); assay: c-KIT V654A Kinase Assay; format: biochemical; details: enzymatic assay, ATP 200 μM
T2 construct: V654A c-Kit (residues T544-V976 with N-terminal GST fusion, 47 nM); purchased deCODE Biostructures
T2 sequence (P10721 544-976 V654A): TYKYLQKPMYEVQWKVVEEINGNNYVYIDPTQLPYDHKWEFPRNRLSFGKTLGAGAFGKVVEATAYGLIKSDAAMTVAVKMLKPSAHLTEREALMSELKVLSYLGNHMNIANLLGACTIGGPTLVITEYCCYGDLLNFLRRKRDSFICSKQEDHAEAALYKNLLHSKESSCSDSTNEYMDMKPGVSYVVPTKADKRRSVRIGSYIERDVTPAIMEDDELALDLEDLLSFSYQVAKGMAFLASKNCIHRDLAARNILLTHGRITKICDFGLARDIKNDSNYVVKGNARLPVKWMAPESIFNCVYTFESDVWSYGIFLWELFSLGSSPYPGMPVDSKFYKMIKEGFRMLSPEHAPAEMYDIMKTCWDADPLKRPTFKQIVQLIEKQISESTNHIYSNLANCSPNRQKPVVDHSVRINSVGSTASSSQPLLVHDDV
Protocol: In this assay, the oxidation of NADH (measured by decrease in absorbance at 340 nm) was continuously monitored spectrophotometrically. […] The inhibition reaction was started by mixing serial diluted test compound with the above reaction mixture. The absorption at 340 nm was monitored continuously for 6 hours at 30° C. on Synergy 2 plate reader (BioTech).
The protein construct was prepared by deCODE Biostructures using procedures known in the art. The construct contains residues T544-V976 of cKit, an N-terminal tag, a GST-fusion sequence and a TEV cleavage site. This construct is identical to Seq ID no.

[3] = target: T3, c-KIT D816H kinase (Seq ID no. 3) (Homo sapiens, UniProt P10721, D816H); assay: c-KIT D816H Kinase Assay; format: biochemical; details: enzymatic assay, ATP 200 μM
T3 construct: GST (N); TEV cleavage site (N); purchased deCODE Biostructures
T3 sequence (P10721 544-976 D816H): as the sequence (P10721 544-976 V654A) above, with A111V, D273H counted along it

[4] = target: T4, c-KIT D816V kinase (Seq ID no. 4) (Homo sapiens, UniProt P10721, D816V); assay: c-KIT D816V kinase Assay; format: biochemical; details: enzymatic assay, ATP 200 uM
T4 construct: D816V c-KIT (residues T544-V976 with N-terminal GST fusion, 16 nM); purchased deCODE Biostructures
T4 sequence (P10721 544-976 D816V): as the sequence (P10721 544-976 V654A) above, with A111V, D273V counted along it

[5] = target: Phospho-KIT (Tyr719) in GIST430 cells (Homo sapiens, UniProt P10721); assay: GIST430 KIT Western Blot; format: cell-based; details: 4 hours, read-out: pKIT suppression by western blot analysi GIST430
Phospho-KIT (Tyr719) in GIST430 cells, sequence (P10721 with tags, fused parts or gaps DEL560-576/V654A, form open): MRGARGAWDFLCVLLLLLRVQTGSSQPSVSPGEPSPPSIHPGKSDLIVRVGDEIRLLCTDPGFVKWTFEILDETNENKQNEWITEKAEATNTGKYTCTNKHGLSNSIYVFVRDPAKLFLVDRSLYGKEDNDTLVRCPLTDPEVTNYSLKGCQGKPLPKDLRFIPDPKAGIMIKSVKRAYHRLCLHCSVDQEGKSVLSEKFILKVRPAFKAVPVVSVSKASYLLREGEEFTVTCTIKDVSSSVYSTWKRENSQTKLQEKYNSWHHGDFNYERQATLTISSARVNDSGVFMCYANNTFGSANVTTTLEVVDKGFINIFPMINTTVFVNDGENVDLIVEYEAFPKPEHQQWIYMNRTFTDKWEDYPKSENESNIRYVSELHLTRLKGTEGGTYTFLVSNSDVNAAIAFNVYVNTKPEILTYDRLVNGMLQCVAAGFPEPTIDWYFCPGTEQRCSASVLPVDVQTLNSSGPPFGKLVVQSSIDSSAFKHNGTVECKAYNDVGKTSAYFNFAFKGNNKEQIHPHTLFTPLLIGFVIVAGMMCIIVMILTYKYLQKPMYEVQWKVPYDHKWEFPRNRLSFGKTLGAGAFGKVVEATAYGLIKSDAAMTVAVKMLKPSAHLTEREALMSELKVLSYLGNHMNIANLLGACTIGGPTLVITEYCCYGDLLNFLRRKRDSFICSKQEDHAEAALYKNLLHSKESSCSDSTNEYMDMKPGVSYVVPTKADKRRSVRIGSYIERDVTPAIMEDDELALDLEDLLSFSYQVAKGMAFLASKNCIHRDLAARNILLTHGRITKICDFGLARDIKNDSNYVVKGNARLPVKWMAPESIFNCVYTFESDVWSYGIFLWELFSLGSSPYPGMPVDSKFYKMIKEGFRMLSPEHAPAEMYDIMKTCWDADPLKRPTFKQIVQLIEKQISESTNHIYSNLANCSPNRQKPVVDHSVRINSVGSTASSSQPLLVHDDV

[6] = target: Phospho-KIT (Tyr719) in GIST48 cells (Homo sapiens, UniProt P10721); assay: GIST48 KIT Western Blot; format: cell-based; details: 4 hours, read-out: pKIT suppression by western blot analysi GIST48
Phospho-KIT (Tyr719) in GIST48 cells, sequence (P10721 whole entry V560D/D820A, form open): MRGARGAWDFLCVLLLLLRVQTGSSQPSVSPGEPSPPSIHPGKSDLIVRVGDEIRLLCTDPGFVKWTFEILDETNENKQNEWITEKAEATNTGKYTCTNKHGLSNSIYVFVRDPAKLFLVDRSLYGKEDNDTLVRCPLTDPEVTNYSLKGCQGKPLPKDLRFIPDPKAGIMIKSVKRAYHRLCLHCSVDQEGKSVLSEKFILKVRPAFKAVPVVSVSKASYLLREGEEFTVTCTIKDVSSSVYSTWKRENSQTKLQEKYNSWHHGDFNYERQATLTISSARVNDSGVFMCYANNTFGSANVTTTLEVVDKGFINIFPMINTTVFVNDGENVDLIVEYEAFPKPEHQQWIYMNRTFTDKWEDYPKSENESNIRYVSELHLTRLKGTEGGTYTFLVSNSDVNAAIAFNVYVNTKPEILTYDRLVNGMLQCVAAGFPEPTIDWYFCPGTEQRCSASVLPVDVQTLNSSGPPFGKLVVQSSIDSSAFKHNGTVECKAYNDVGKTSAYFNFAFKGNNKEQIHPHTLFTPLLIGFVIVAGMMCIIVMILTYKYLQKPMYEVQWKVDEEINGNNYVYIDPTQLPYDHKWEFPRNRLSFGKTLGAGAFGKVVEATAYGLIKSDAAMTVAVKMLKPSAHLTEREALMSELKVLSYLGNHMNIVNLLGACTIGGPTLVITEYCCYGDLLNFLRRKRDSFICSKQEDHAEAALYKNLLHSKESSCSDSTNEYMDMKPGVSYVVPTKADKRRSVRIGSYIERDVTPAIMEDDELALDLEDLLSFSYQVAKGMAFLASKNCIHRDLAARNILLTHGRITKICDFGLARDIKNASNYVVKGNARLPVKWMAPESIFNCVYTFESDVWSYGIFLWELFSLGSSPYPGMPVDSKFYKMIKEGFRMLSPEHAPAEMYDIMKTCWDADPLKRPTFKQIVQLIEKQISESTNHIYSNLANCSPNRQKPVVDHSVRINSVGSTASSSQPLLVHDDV

Row | IC50 [1] | IC50 [2] | IC50 [3] | IC50 [4] | IC50 [5] | IC50 [6] | Structure (SMILES)
1 | < 10 nM | 100 to 1000 nM | 10 to 100 nM | 100 to 1000 nM | 10 to 100 nM | 10 to 100 nM | CCn1c(=O)c(-c2cc(NC(=O)Nc3cccc(CN4CCN(C)CC4)c3)c(F)cc2Cl)cc2cnc(NC)cc21 [Example 79, 1-(4-chloro-5-(1-ethyl-7-(methylamino)-2-oxo-1,2-dihydro-1,6-naphthyridin-3-yl)-2-fluorophenyl)-3-(3-((4-methylpiperazin-1-yl)methyl)phenyl)urea]
2 | < 10 nM | 10 to 100 nM | 10 to 100 nM | 100 to 1000 nM | 10 to 100 nM | 10 to 100 nM | CCn1c(=O)c(-c2cc(NC(=O)Nc3cc(F)cc(CN4CCN(C)CC4)c3)c(F)cc2Cl)cc2cnc(NC)cc21 [Example 88, 1-(4-chloro-5-(1-ethyl-7-(methylamino)-2-oxo-1,2-dihydro-1,6-naphthyridin-3-yl)-2-fluorophenyl)-3-(3-fluoro-5-((4-methylpiperazin-1-yl)methyl)phenyl)urea]
3 | < 10 nM | < 10 nM | < 10 nM | 10 to 100 nM | < 10 nM | 10 to 100 nM | CCn1c(=O)c(-c2cc(NC(=O)Nc3ccccc3)c(F)cc2Cl)cc2cnc(N)cc21 [Example 21, 1-(5-(7-amino-1-ethyl-2-oxo-1,2-dihydro-1,6-naphthyridin-3-yl)-4-chloro-2-fluorophenyl)-3-phenylurea]
